The source of these data is patent US5622688A, “Macrocyclic chelants, their chelates and uses thereof in the diagnostic field” (Dibra S.p.A., priority 1994, dated 1997).

One data set concerns mice. The data set can be described thus: Acute toxicity LD50 i.v. in mice. The class given is in vivo. The source says:
Some of the available data relative to Gd chelates of this invention are detailed in Example 4, together with a comparison with the known data of the following commercially available products: DOTAREM®, OMNISCAN®, PROHANCE®. The datum relative to Gd-DTPA-bismethylammide, Gd-DTPA-BMA, which is the active ingredient of OMNISCAN®, is also reported, even if there is remarkable difference in the LD50 values. Such a difference is known to be due to the simultaneous presence in OMNISCAN® of Gd-DTPA-BMA 500 mM, and of the complex of the same ligand with sodium and calcium, Na[CaDTPA-BMA], at a 25 mM concentration. Therefore the comparison of this last datum with those available for the compounds of this invention is more significant as far as determination homogeneity is concerned.

Data set [1] in a line: Osmolality of aqueous solutions. The class given is physicochemical.
A short description of a further data set: Charge. The class given is physicochemical. The conditions noted are these: Table I, own compound.
The conditions of data set [2]: cited from earlier work; for formal charge: background, gadolinium chelate before salification.

Structures are written as SMILES. Read-outs that look alike come from different tables or passages of the source.

With `CC(C(=O)NC(CCCO)(CCCO)CCCO)N1CCN(CC(=O)[O-])CCN(CC(=O)[O-])CCN(CC(=O)[O-])CC1.[Gd+3]` (stereo not shown) [Example 1, Gadolinium complex of 10-[2-[[1,1-bis(3-hydroxypropyl)-4-hydroxybutyl]amino]-1-methylene-2-oxoethyl]-1,4,7,10-tetraazacyclododecan-1,4,7-triacetic acid], in the data set with mice, the “LD50 (mice) i.v.” value is listed as 23.4 mmol/kg.
In the case of `C=C(C(=O)NCCOCCO)N1CCN(CC(=O)[O-])CCN(CC(=O)[O-])CCN(CC(=O)[O-])CC1.[Gd+3]` [Example 2, Gadolinium complex of 10-[2-[[2-(2-hydroxyethoxy)ethyl]amino]-1-(methylene)-2-oxoethyl]-1,4,7,10-tetraazacyclododecan-1,4,7-triacetic acid], the “LD50 (mice) i.v.” value in the data set with mice is reported as 37.6 mmol/kg. The same molecule returned an OSMOLALITY in data set [1] of 855 mOsm/kg H2 O. The CHARGE result in “Charge” was “non-ionic”.
Take `O=C([O-])CN1CCN(CC(=O)[O-])CCN(CC(=O)O)CCN(CC(=O)[O-])CC1.[Gd+3]` [Gd-DOTA]: the formal charge in data set [2] was -1.
Regarding `O=C([O-])CN(CCN(CC(=O)[O-])CC(=O)O)CCN(CC(=O)[O-])CC(=O)O.[Gd+3]` [Gd-DTPA], the formal charge in data set [2] is on record as -2.
Take `CNC(=O)CN(CCN(CCN(CC(=O)[O-])CC(=O)NC)CC(=O)[O-])CC(=O)[O-].[Gd+3]` [GdDTPA-BMA, Gd-DTPA-bismethylamide]: the CHARGE entry in data set [2] (Table I, from the data available on the product brochures) was “non-ionic”.
